Consider ten compounds from ChEMBL document CHEMBL1201862, “PubChem BioAssay data set” (2004).

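48-hour exposure; five concentrations; linearly interpolated endpoints. Abbreviation: GI50, concentration required for 50% inhibition of growth.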 The source made the active and inactive calls. Rule as the data show it: active = GI50 up to about 1.1 µM and inactive = higher.

Test systems include BT-549; SNB-75; EKVX; DU-145; A549; HCT-15; SK-OV-3; T47D; MDA-MB-435; SK-MEL-5; TK-10; NCI-H23; HOP-92; HOP-62; KM12; HT-29; ACHN; HCC 2998; IGROV-1; OVCAR-4.
What all share (test): NCI tumour cell line growth inhibition, 48 h

As for `COc1cccc(C2c3cc4c(cc3OC(Nc3ccccc3)C2C)OCO4)c1OC` (configuration not stated), the GI50 was 9.12 µM (inactive) in the experiment on BT-549; 20.5 µM (inactive) in the experiment with SNB-75; 19.8 µM (inactive) with EKVX; 7.08 µM (inactive) in the experiment on DU-145; 6.04 µM (inactive) in the experiment with A549; 4.37 µM in the experiment on HCT-15. Further, the GI50 with SK-OV-3 is 7.59 µM (inactive); in the experiment with T47D it was 5.14 µM (inactive); with MDA-MB-435, 14.8 µM (inactive); with SK-MEL-5, 6.5 µM (inactive); with TK-10, 6.46 µM (inactive); in the experiment with NCI-H23 it was 42 µM (inactive). Also, the GI50 with HOP-92 is 5.43 µM (inactive); in the experiment on HOP-62, 15 µM (inactive); in the experiment on KM12, 4.02 µM (inactive); in the experiment on HT-29, 11.2 µM (inactive); with ACHN it was 3.94 µM (inactive); in the experiment on HCC 2998 it was 74.1 µM (inactive). In the experiment with IGROV-1, the GI50 was 14.9 µM (inactive).
`Cc1nc(-c2cc3ccccc3oc2=O)cs1`: the GI50 in the experiment on BT-549 is 15.9 µM (inactive); in the experiment on SNB-75, < 0.01 µM (active); in the experiment on OVCAR-4, > 100 µM (inactive); in the experiment with EKVX, 34.2 µM (inactive); in the experiment with DU-145, > 100 µM (inactive); in the experiment with A549, > 100 µM (inactive). Further, the GI50 with HCT-15 was over 100 µM; with SK-OV-3, > 100 µM (inactive); in the experiment on T47D, > 100 µM (inactive); in the experiment with MDA-MB-435 it was > 100 µM (inactive); in the experiment with SK-MEL-5 it was > 100 µM (inactive); in the experiment with TK-10 it was 37.4 µM (inactive). Moreover, the GI50 is 19 µM (inactive) with HOP-92; 16.6 µM (inactive) in the experiment with HOP-62; > 100 µM (inactive) in the experiment on KM12; > 100 µM (inactive) in the experiment with HT-29; 52.5 µM (inactive) in the experiment with ACHN; > 100 µM (inactive) in the experiment with HCC 2998. In addition, in the experiment on IGROV-1, the GI50 was 17.1 µM (inactive).
Turning to `CCOC(=O)c1c(N2CCCC2)[nH]c(=O)c(C(c2ccco2)c2c(O)c(C(=O)OCC)c(N3CCCC3)[nH]c2=O)c1O`, the GI50 is > 100 µM (inactive) with BT-549; 23.4 µM (inactive) in the experiment with SNB-75; > 100 µM (inactive) in the experiment with OVCAR-4; > 100 µM (inactive) in the experiment on EKVX; > 100 µM (inactive) in the experiment with DU-145; > 100 µM (inactive) in the experiment with A549. Besides, the GI50 is over 100 µM in the experiment on HCT-15; > 100 µM (inactive) in the experiment on SK-OV-3; 19.4 µM (inactive) in the experiment with T47D; > 100 µM (inactive) with MDA-MB-435; 82.6 µM (inactive) in the experiment with SK-MEL-5; > 100 µM (inactive) with TK-10. For the same compound, the GI50 in the experiment with NCI-H23 was > 100 µM (inactive); in the experiment with HOP-92 it was > 100 µM (inactive); with HOP-62, 50.6 µM (inactive); in the experiment with KM12, > 100 µM (inactive); in the experiment on HT-29 it was > 100 µM (inactive); in the experiment with ACHN it was 95.5 µM (inactive). For the same compound, the GI50 in the experiment with HCC 2998 is > 100 µM (inactive).
With `COc1cc(C2CC(C)(N3CCCC3)Oc3cc4c(cc32)OCO4)cc(OC)c1OC` (configuration not stated), the GI50 in the experiment on BT-549 is 0.794 µM (active); with SNB-75, 0.0865 µM (active); in the experiment with OVCAR-4, 19.5 µM (inactive); in the experiment on EKVX it was 0.456 µM (active); in the experiment on DU-145 it was 0.42 µM (active); with A549, 0.462 µM (active). In addition, the GI50 in the experiment on HCT-15 is 0.12 µM; in the experiment with T47D, 5.55 µM (inactive); in the experiment with MDA-MB-435 it was 0.0211 µM (active); in the experiment on SK-MEL-5, 0.124 µM (active); in the experiment on HOP-92 it was 62.1 µM (inactive); with HOP-62, 0.335 µM (active). Besides, the GI50 with KM12 was 0.182 µM (active); with HT-29, 0.165 µM (active); in the experiment on ACHN, 0.69 µM (active); in the experiment on HCC 2998, 0.618 µM (active); with IGROV-1, 0.31 µM (active).
On to `CCCCOCCOC1=CC(=O)c2c(O)ccc(O)c2C1=O`, for which the GI50 in the experiment with BT-549 is 1.63 µM (inactive); with SNB-75, 1.57 µM (inactive); with OVCAR-4, 1.92 µM (inactive); in the experiment on EKVX it was 1.69 µM (inactive); in the experiment with DU-145 it was 1.78 µM (inactive); in the experiment with A549 it was 1.75 µM (inactive). Further, the GI50 in the experiment with SK-OV-3 is > 10 µM (inactive); in the experiment on T47D, 2.06 µM (inactive); in the experiment on MDA-MB-435, 0.185 µM (active); in the experiment on SK-MEL-5, 0.216 µM (active); with TK-10, 3.1 µM (inactive); in the experiment with NCI-H23, 1.7 µM (inactive). In addition, the GI50 is 2.56 µM (inactive) with HOP-92; 0.458 µM (active) in the experiment with HOP-62; 1.75 µM (inactive) in the experiment with KM12; 1.67 µM (inactive) in the experiment with HT-29; 1.72 µM (inactive) in the experiment on ACHN; 1.88 µM (inactive) with HCC 2998. In addition, in the experiment with IGROV-1, the GI50 was 1.91 µM (inactive).
As for `Cc1cc2c(-c3ccccc3)cc(=O)[nH]c2cc1N`, the GI50 with BT-549, in the experiment on SNB-75, with OVCAR-4, in the experiment on EKVX, with DU-145 and in the experiment with A549 was > 100 µM (inactive) throughout. Besides, the GI50 with HCT-15 is over 100 µM; in the experiment with T47D, > 100 µM (inactive); in the experiment with MDA-MB-435 it was > 100 µM (inactive); with SK-MEL-5, > 100 µM (inactive); with NCI-H23, > 100 µM (inactive); in the experiment with HOP-92, > 100 µM (inactive). In addition, the GI50 in the experiment on HOP-62, in the experiment with KM12, in the experiment on HT-29, in the experiment with ACHN, in the experiment on HCC 2998 and in the experiment with IGROV-1 was > 100 µM (inactive) throughout.
On to `Cc1cn(C2CC(N=[N+]=[N-])C(COP(=O)(O)OCC3OC(n4cc(F)c(=O)[nH]c4=O)CC3O)O2)c(=O)[nH]c1=O` (configuration not stated), for which the GI50 in the experiment on BT-549 was > 100 µM (inactive); in the experiment with SNB-75 it was 9.06 µM (inactive); with EKVX it was 6.46 µM (inactive); in the experiment on DU-145, 4.1 µM (inactive); in the experiment with A549, 0.368 µM (active); in the experiment on HCT-15, over 100 µM. Also, the GI50 is > 100 µM (inactive) in the experiment on SK-OV-3; > 100 µM (inactive) in the experiment on T47D; 16 µM (inactive) in the experiment on MDA-MB-435; 12.2 µM (inactive) in the experiment on SK-MEL-5; > 100 µM (inactive) in the experiment on TK-10; 4.05 µM (inactive) in the experiment with NCI-H23. Moreover, the GI50 in the experiment with HOP-92 was 1.11 µM (active); in the experiment with HOP-62, 0.348 µM (active); in the experiment on KM12 it was > 26.4 µM (inactive); in the experiment with HT-29 it was > 100 µM (inactive); with ACHN, 0.63 µM (active); with HCC 2998, > 100 µM (inactive). In addition, the GI50 with IGROV-1 was 2.88 µM (inactive).
With `N#CC1(C#N)NC(c2cccnc2)C(C#N)(C#N)NC1c1cccnc1` (configuration not stated), the GI50 was > 100 µM (inactive) in the experiment with BT-549; 47.9 µM (inactive) in the experiment on SNB-75; > 100 µM (inactive) in the experiment with OVCAR-4; > 100 µM (inactive) with EKVX; > 100 µM (inactive) in the experiment on DU-145; > 100 µM (inactive) with A549. Moreover, the GI50 in the experiment with HCT-15 was over 100 µM; with SK-OV-3, > 100 µM (inactive); with T47D, > 100 µM (inactive); with MDA-MB-435, > 100 µM (inactive); in the experiment with SK-MEL-5 it was > 100 µM (inactive); in the experiment with TK-10, > 100 µM (inactive). Besides, the GI50 in the experiment with NCI-H23, with HOP-92, with HOP-62, with KM12, in the experiment with HT-29 and in the experiment on HCC 2998 was > 100 µM (inactive) in each case. Besides, the GI50 with IGROV-1 is > 100 µM (inactive).
As for `CC(=O)O[C@H]1C(=O)[C@@]2(C)[C@H]([C@H](OC(=O)c3ccccc3)[C@]3(O)C[C@H](OC(=O)[C@H](O)[C@@H](NC(=O)CC(C)C)c4ccccc4)C(C)=C1C3(C)C)[C@]1(OC(C)=O)CO[C@@H]1C[C@@H]2O`, the GI50 in the experiment on BT-549 is 0.248 µM (active); with SNB-75, < 0.001 µM (active); in the experiment on OVCAR-4 it was > 10 µM (inactive); in the experiment on EKVX, 0.428 µM (active); with DU-145 it was 0.0232 µM (active); in the experiment with A549, 0.00637 µM (active). In addition, the GI50 in the experiment with HCT-15 is 0.547 µM; in the experiment on SK-OV-3 it was 0.00433 µM (active); in the experiment on T47D, 0.00399 µM (active); in the experiment with MDA-MB-435, < 0.001 µM (active); in the experiment on SK-MEL-5, 0.00251 µM (active); with TK-10, 0.0383 µM (active). Besides, the GI50 is 0.00321 µM (active) in the experiment on NCI-H23; 0.508 µM (active) with HOP-92; 0.0221 µM (active) in the experiment on HOP-62; < 0.001 µM (active) with HT-29; 0.157 µM (active) in the experiment on ACHN; 0.00303 µM (active) with HCC 2998. Further, the GI50 with IGROV-1 is 0.00285 µM (active).
`O=C1OC(C2OC(=O)c3cc(O)c(O)c(O)c3-c3c(O)c(O)c4oc(=O)c5c(c(O)c(O)c6oc(=O)c3c4c65)-c3c(cc(O)c(O)c3O)C(=O)OCC2O)C2OC(=O)c3c(c(O)c(O)c(O)c3[C@H]2O)-c2c1cc(O)c(O)c2O` (some centres not stated): the GI50 in the experiment with BT-549 is 24 µM (inactive); with SNB-75, 16.9 µM (inactive); with OVCAR-4, 16.1 µM (inactive); with EKVX, 13 µM (inactive); with DU-145 it was 30.3 µM (inactive); in the experiment with A549, 20.2 µM (inactive). For the same compound, the GI50 in the experiment on HCT-15 was 13.2 µM; in the experiment with SK-OV-3, 59.7 µM (inactive); in the experiment with T47D, 26.7 µM (inactive); in the experiment on MDA-MB-435, 14 µM (inactive); in the experiment with SK-MEL-5, 13.9 µM (inactive); in the experiment with NCI-H23, 16.6 µM (inactive). Besides, the GI50 was 18.3 µM (inactive) in the experiment with HOP-92; 33.5 µM (inactive) in the experiment with HOP-62; 15.2 µM (inactive) with KM12; 13.3 µM (inactive) with HT-29; 24.7 µM (inactive) in the experiment with ACHN; 43.6 µM (inactive) in the experiment with HCC 2998. In the experiment with IGROV-1, the GI50 is 25.6 µM (inactive).
